Activity calls are given as the source filed them.

Assay [1] concerns the target T1, Dual specificity mitogen-activated protein kinase kinase 3 (Homo sapiens, UniProt P46734).
T1 sequence (P46734 whole entry): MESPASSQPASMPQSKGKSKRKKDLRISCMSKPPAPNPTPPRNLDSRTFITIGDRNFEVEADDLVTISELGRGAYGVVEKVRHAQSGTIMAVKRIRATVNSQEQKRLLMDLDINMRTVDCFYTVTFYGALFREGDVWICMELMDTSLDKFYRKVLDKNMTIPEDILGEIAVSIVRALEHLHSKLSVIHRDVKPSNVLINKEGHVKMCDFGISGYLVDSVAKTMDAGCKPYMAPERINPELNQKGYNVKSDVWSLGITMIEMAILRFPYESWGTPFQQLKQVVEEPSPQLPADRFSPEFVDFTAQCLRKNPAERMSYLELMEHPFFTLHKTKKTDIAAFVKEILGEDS

Assay [2] concerns the target T2, Bifunctional phosphoribosylaminoimidazole carboxylase/phosphoribosylaminoimidazole succinocarboxamide synthetase (Homo sapiens, UniProt P22234).
T2 sequence (P22234 whole entry): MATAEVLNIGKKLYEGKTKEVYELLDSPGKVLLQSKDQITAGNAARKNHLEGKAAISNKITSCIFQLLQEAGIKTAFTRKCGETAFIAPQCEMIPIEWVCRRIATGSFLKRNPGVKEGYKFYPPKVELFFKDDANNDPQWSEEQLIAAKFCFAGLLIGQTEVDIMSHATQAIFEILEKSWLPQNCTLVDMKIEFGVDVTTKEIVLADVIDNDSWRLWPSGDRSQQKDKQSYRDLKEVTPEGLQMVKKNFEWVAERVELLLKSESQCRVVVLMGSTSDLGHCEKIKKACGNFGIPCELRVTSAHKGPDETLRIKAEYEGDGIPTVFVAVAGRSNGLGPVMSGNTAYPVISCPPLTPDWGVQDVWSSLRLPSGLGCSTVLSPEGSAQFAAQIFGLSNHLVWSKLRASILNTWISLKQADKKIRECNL

Assay [3] addresses T3, Ras-related protein Rab-10 (Homo sapiens, UniProt P61026).
T3 sequence (P61026 whole entry): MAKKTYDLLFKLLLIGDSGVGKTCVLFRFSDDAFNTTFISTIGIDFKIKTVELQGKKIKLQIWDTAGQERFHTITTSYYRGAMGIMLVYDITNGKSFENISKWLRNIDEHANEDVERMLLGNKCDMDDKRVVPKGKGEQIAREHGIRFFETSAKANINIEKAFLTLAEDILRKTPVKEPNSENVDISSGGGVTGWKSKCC

For assay [4], the target named is Structural maintenance of chromosomes protein 2 (Homo sapiens, UniProt O95347).
Assay [5] concerns the target Serine/threonine-protein kinase B-raf (Homo sapiens, UniProt P15056).
Assay [6] concerns the target T4, Phosphatidylinositol 5-phosphate 4-kinase type-2 gamma (Homo sapiens, UniProt Q8TBX8).
T4 sequence (Q8TBX8 whole entry): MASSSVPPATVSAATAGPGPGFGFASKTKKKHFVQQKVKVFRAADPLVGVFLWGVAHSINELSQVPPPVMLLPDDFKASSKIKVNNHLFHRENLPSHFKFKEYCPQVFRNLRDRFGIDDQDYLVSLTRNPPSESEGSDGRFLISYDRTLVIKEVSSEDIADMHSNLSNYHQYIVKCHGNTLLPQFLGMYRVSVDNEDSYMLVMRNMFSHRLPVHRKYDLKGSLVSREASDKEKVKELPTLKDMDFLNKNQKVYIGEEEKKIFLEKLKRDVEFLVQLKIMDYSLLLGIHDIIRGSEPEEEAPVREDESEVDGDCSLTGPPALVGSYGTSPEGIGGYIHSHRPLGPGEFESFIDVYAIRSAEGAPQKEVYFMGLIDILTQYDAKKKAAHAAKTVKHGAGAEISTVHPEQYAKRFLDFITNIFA

The target of assay [7] is T5, Ephrin type-B receptor 3 (Homo sapiens, UniProt P54753).
T5 sequence (P54753 whole entry): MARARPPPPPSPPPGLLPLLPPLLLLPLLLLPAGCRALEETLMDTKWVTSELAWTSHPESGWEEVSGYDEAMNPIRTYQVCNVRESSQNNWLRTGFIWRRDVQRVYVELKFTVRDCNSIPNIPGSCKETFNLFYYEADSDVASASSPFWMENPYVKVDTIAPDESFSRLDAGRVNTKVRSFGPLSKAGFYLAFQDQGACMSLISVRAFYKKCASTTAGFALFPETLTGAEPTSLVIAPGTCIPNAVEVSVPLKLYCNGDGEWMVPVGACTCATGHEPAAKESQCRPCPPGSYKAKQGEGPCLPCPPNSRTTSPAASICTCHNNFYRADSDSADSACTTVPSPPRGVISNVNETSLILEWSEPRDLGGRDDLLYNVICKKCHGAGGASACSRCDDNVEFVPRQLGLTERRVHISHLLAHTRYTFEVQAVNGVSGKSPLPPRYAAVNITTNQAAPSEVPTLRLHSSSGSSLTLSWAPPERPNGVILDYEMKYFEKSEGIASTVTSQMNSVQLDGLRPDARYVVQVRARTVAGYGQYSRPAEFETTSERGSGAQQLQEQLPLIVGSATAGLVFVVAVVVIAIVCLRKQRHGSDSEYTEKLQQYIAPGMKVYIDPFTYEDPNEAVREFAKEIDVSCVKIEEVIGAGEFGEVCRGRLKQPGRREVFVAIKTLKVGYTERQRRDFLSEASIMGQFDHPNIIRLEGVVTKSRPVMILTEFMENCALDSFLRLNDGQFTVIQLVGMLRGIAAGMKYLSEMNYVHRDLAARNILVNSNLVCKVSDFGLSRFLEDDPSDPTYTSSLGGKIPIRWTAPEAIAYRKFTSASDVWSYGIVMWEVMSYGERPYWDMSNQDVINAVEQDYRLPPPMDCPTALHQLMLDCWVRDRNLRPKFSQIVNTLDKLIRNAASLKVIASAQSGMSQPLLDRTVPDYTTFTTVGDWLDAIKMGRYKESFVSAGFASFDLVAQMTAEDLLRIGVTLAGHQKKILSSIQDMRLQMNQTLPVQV

Assay [8] concerns the target RAC-gamma serine/threonine-protein kinase (Homo sapiens, UniProt Q9Y243).
The target of assay [9] is Ribosomal protein S6 kinase beta-1 (Homo sapiens, UniProt P23443).
Further: in the data inactive means no Kd found up to 30 µM.

Ribosomal protein S6 kinase beta-1, sequence (P23443 whole entry): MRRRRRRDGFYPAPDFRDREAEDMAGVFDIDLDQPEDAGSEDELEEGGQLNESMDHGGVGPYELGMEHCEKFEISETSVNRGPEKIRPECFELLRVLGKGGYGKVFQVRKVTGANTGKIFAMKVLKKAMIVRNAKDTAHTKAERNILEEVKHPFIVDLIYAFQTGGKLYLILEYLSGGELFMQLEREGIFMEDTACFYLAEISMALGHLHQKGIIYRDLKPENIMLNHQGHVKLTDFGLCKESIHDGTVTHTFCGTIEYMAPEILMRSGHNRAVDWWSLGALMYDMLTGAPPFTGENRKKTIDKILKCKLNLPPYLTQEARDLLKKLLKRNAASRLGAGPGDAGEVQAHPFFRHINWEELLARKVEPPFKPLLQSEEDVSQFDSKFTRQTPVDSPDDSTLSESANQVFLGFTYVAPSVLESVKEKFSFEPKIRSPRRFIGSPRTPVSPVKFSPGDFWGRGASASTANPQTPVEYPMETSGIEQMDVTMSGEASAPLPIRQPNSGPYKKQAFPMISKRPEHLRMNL
Structural maintenance of chromosomes protein 2, sequence (O95347 whole entry): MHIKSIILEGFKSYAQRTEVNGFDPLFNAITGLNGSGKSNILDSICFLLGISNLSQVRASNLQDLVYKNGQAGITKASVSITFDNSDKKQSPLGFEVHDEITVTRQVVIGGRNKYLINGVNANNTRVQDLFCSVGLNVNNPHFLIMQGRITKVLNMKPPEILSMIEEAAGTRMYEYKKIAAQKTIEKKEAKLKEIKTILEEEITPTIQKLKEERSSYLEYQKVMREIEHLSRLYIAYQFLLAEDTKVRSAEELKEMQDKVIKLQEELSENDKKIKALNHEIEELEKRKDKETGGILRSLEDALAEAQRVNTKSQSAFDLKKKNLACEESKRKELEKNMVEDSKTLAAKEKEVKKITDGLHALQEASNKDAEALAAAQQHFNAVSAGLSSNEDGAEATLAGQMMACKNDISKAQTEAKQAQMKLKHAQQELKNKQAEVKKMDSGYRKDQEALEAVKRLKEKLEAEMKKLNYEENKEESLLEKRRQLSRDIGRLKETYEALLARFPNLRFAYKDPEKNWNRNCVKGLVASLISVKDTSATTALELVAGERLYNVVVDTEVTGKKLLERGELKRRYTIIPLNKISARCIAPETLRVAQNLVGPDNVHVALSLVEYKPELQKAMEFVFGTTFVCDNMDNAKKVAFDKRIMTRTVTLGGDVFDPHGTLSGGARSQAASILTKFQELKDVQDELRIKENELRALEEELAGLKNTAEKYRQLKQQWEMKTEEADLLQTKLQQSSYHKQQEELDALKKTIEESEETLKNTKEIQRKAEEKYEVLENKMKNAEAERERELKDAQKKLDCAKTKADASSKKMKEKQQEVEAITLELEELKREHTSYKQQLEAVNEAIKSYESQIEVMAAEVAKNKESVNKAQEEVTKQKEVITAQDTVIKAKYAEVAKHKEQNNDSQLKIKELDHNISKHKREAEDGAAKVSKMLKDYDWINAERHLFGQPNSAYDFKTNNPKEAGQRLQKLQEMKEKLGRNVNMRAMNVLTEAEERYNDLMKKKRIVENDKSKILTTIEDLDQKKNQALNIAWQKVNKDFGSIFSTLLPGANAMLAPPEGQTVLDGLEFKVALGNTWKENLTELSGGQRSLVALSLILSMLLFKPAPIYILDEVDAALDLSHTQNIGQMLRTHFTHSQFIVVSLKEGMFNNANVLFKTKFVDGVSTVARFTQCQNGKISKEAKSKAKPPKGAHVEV
Serine/threonine-protein kinase B-raf, sequence (P15056 whole entry): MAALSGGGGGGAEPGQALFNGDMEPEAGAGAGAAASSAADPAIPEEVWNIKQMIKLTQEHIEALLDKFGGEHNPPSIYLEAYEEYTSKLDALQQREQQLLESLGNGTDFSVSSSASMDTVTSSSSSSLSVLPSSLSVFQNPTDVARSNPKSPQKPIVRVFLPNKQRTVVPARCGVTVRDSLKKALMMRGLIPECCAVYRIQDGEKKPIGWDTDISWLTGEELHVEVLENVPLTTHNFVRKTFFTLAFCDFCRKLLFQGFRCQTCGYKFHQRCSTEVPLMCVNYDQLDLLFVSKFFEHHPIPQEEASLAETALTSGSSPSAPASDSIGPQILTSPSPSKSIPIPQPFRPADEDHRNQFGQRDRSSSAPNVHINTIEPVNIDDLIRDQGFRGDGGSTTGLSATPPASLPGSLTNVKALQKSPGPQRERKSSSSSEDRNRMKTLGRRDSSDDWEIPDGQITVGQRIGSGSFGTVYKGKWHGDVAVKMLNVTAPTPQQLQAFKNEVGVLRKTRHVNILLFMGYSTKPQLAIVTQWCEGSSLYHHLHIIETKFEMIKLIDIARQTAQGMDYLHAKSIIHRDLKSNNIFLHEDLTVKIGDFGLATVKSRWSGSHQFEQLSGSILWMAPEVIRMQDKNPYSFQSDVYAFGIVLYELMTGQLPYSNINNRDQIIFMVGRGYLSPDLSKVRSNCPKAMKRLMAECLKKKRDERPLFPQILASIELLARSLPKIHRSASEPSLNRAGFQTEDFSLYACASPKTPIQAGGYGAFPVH
RAC-gamma serine/threonine-protein kinase, sequence (Q9Y243 whole entry): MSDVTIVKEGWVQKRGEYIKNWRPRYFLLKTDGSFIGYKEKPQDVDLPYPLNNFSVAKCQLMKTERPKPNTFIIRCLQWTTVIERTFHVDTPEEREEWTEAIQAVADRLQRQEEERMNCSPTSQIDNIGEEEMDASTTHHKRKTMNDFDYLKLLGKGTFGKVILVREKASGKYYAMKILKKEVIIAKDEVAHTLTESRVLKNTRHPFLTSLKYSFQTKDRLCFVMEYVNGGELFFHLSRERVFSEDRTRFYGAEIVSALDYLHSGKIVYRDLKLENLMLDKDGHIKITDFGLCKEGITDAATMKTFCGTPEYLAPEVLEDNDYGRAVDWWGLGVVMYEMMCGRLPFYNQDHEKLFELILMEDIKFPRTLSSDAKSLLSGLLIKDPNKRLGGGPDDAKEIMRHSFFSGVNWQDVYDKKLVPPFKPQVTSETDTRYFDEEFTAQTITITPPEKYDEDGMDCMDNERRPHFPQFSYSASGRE

Turning to `COc1cc(Nc2ncc3c(n2)-c2ccc(Cl)cc2C(c2c(F)cccc2OC)=NC3)ccc1C(=O)O` [ALISERTIB], the Kd in assay [1] was > 30 µM (inactive); in [2], > 30 µM (inactive); in assay [3], 1.35 µM; in assay [4], > 30 µM (inactive); in [5], > 30 µM (inactive).
Take `Cc1cc(C(=O)NOCCO)c(Nc2ccc(I)cc2F)n(C)c1=O` [AZD-8330]: the Kd in assay [1], in [2], in [6], in assay [3], in assay [7] and in [8] was > 30 µM (inactive) each time. For the same compound, the Kd in assay [4] and in [5] was > 30 µM (inactive) in each case.
For the compound `CCn1cc(-c2ccnc3[nH]c(-c4cccc(CN(C)C)c4)cc23)c(-c2ccc(NC(=O)N(C)C)cc2)n1` [GSK-1070916], the Kd in assay [1] is > 30 µM (inactive); in assay [2], > 30 µM (inactive); in assay [3], > 30 µM (inactive); in assay [7] it was > 30 µM (inactive); in assay [8], 3.29 µM (active); in [4], > 30 µM (inactive). Besides, the Kd in assay [5] is > 30 µM (inactive).
For `O=C(Nc1cc(C(F)(F)F)cc(C(F)(F)F)c1)c1cc(Cl)ccc1O` [IMD-0354], the Kd in assay [1], in assay [2], in [6], in assay [7], in [4] and in [5] was > 30 µM (inactive) throughout.
For the compound `Cc1[nH]c(/C=C2\C(=O)Nc3ccccc32)c(C)c1CCC(=O)O` [ORANTINIB], the Kd in assay [1], in assay [2], in [3], in assay [7], in [4] and in assay [5] was > 30 µM (inactive) throughout.
Consider `CC(=O)NCC(=O)N1[C@@H]2CC[C@H]1c1ccc(Nc3ncc(C(F)(F)F)c(NC4CCC4)n3)cc12` [PF-03814735], for which the Kd in assay [1], in [2], in [6], in assay [3], in assay [7] and in [4] was > 30 µM (inactive) throughout. The Kd in assay [5] was > 30 µM (inactive).
Turning to `COc1cc2c(Nc3ccc(Cl)c(Cl)c3F)ncnc2cc1OC[C@@H]1C[C@@H]2CN(C)C[C@@H]2C1` [TESEVATINIB], the Kd in [1], in [9], in assay [2], in [6], in assay [3] and in assay [7] was > 30 µM (inactive) in each case. The Kd in assay [8] and in assay [4] was > 30 µM (inactive) throughout.
As for `C[C@@H](NC(=O)c1ncnc(N)c1Cl)c1ncc(C(=O)Nc2cc(C(F)(F)F)c(Cl)cn2)s1` [TOVORAFENIB], the Kd in assay [1], in assay [9], in assay [2], in [6], in [3] and in assay [7] was > 30 µM (inactive) throughout. In addition, the Kd in assay [8] and in assay [4] was > 30 µM (inactive) throughout.
On to `Cc1cc(Nc2ncnc3ccc(NC4=NC(C)(C)CO4)cc23)ccc1Oc1ccn2ncnc2c1` [TUCATINIB], for which the Kd in assay [1], in assay [9], in assay [2], in assay [6], in assay [3] and in assay [7] was > 30 µM (inactive) throughout. Further, the Kd in assay [8] and in assay [4] was > 30 µM (inactive) each time.

Source of the values: ChEMBL document CHEMBL3991601, “The target landscape of clinical kinase drugs” (Science, 2017).
